From US11389382B2, “Biphase chemical peel” (L'OREAL, priority 2019, dated 2022)

Legend:
forearm skin = experiment: In vivo tape stripping, protein removed, Micro BCA assay (efficacy of desquamation); set-up: species or system human; conditions: tape stripping of forearm after 15 min treatment; 4 tape strippings per region, average of 3 regions, single person
Protocol: Example 5: In Vivo Tape Stripping Protein Removed Using a Micro […] Assay to Characterize the Efficacy of Desquamation
Studies were conducted with each of the exemplified inventive and comparative compositions, to evaluate effect of the compositions on live skin tape stripping samples. Inventive 1 and Inventive 2 compositions and the Comparative composition together with Jessner peel, glycolic acid alone and isopropyl myristate controls were evaluated according to the following procedure. Tape strips of skin areas tested with each composition were obtained, with 4 tape strippings per region; Average of 3 regions; Experiment done on single person rinse the forearm with distilled water and dry it for 3 minutes; Wipe with the peel test composition saturated cotton pads on the designated area and dry it for 15 min; Rinse the forearm with the water and dry the moisture by placing a tissue and patting the tissue. Air dry it for 3 min; Perform the tape stripping—(1) put the tape on, (2) place the metal plate on top of the tape, and (3) put weight (2 kg) for 5 seconds.—3 tapes (3 different regions of the skin)/peel test composition×4 tape stripping; Each tape (1.4 cm) was inserted in a 2 mL Eppendorf tube and 500 uL of PBS was added to each tube; Shaking condition ([…]) for 2 hours @ room temperature; Sonication for 20 min in ice water; Micro BCA assay.

stratum corneum samples = experiment: In vitro stratum corneum comparison of ΔT using differential scanning calorimetry (lipid disorganization); conditions: DSC 20° C. to 120° C. at 5° C./min; 0.1 g/sample on SC surface for 15 min in 75% RH
Protocol: In Vitro Stratum Corneum Comparison of ΔT using differential scanning calorimetry (DSC) to characterize the stability of a protein or other biomolecule directly in its native form. It does this by measuring the heat change associated with the molecule's thermal denaturation when heated at a constant rate.
Studies were conducted with each of the exemplified inventive and comparative compositions, to evaluate effect of the compositions on the stratum corneum. Inventive 1 and Inventive 2 compositions and the Comparative composition together with Jessner peel, glycolic acid alone and isopropyl myristate controls were evaluated on SC samples according to the following procedure. Stratum corneum samples were equilibrated at 75% RH overnight. Inventive and Comparative Compositions and control treatments applied on SC surface (0.1 g/sample) for 15 min in 75% RH. The SC surface was wiped clean and rinsed with DI water. Allow to dry in 75% RH overnight. The DSC profile was measured from 20° C. to 120° C. at 5° C./min.

[1] = acute oral toxicity, mutagenicity, skin irritation, skin sensitization, phototoxicity; cited from earlier work

Compound	Protein Content (protein removed) (forearm skin)	ΔT (measurement of lipid disorganization) (stratum corneum samples)	adverse effects in basic toxicological tests [1]
O=C(O)CO [Glycolic Acid Control, glycolic acid]	1.65 ± 0.02 μg/cm^2	5.94 ± 0.41	
CCCCCCCCCCCCCC(=O)OC(C)C [Isopropyl myristate control, isopropyl myristate]	2.4 ± 0.88 μg/cm^2	6.40 ± 0.1	
CC(c1ccccc1)c1ccc(O)cc1O (centres unmarked) [Phenylethyl resorcinol]			not shown adverse effects
